# Marks after values point to notes of the source that are not given here.
# Legend:
# [1] = biological target: T1, rat nuclear androgen receptor (Rattus norvegicus, UniProt P15207); assay: Rat androgen receptor binding, [3H]-mibolerone displacement; conditions: 0.01 μM up to 10 μM
# T1 construct: MDS Pharma Services (Taiwan), the contract laboratory that ran the assay
# T1 sequence (P15207 1-902): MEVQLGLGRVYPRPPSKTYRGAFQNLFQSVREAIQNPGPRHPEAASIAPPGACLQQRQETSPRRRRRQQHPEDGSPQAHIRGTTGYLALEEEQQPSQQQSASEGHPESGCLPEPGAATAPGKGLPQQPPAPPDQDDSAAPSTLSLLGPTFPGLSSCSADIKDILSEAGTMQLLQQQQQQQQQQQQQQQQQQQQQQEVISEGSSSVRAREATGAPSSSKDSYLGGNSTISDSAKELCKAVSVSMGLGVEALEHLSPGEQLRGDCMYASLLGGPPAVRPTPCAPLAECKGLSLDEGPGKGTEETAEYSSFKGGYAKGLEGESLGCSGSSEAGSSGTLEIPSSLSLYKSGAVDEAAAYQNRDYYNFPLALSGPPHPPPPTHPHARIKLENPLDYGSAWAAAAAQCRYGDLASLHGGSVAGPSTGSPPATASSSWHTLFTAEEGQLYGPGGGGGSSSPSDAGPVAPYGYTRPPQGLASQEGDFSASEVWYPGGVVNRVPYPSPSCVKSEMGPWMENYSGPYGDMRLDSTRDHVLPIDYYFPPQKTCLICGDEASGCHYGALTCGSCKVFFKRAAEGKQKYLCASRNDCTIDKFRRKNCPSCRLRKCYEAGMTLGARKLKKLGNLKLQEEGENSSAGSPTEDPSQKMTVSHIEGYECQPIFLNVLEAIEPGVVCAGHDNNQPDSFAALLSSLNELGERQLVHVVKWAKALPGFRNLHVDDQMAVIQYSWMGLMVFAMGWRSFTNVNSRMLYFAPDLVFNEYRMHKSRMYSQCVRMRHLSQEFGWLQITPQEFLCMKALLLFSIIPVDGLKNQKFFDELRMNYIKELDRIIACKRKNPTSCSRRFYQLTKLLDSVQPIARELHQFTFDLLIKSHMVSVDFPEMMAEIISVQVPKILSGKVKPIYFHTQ
# Experimental: Rat androgen receptor binding assays were performed by MDS Pharma Services (Taiwan) as described elsewhere (Chang et al., J. Steroid Biochem. 27:123-131, 1987), incorporated herein by reference.
# [2] = tested on: gastrocnemius muscle mRNA (insulin signaling pathway, myogenic transcription factors); assay: Gene expression in gastrocnemius muscle, insulin signaling PCR array and RT-PCR; type: in vivo, rat; conditions: 60 mg/kg oral 24 d
# Experimental: The body weight of each animal and the total amount of food consumed (accounted for spillage) were recorded every 2 d for the duration of the experiment. At the end of the experiment, blood was collected by heart puncture after CO2 inhalation and animal body composition was assessed by DEXA dual-energy X-ray absorptiometry analysis using a Lunar Prodigy Densitometer (GE Healthcare, Waukesha, Wis.). At necropsy, tissue weights were recorded. Tissue samples were collected by snap-freezing in liquid nitrogen and stored at −80° C. for further studies. Total RNA was isolated using Trizol, its quantity and purity were determined using a NanoDrop (Nanodrop Technologies, Wilmington, Del.).
# Pooled RNA samples obtained from frozen skeletal muscle (gastrocnemius muscle biopsies of vehicle- (Ctr) and HB-treated animals) were used in a rat insulin signaling PCR array to measure mRNA response to HB. […] However, the magnitude of the differences varied (FIG. 11A).
# [3] = tested on: elastin mRNA in human neonatal dermal fibroblasts (HNDF); assay: Elastin gene expression in human dermal fibroblasts, qPCR; type: cell-based; conditions: 16 h
# Experimental: Human neonatal dermal fibroblasts (HNDF) were maintained in DMEM+10% FBS and were kept in a humidified 37° C. incubator with 5% CO2. Cells were plated at a density of 1×10^4 cells per well in a 24-well plate and incubated for 24 h, or until 100% confluency was reached. Subsequently, the media was removed and cells were washed with 500 μL PBS twice to remove detached cells or cell debris. HNDF were then treated for 16 h as follows: DMEM only, retinoic Acid 5 μM, retinoic acid 10 μM, Homocastasterone 5 μM and Homocastasterone 10 μM.
# RNA was extracted from HNDF using Trizol reagent (Invitrogen) following manufacturer instructions. RNA was quantified spectrophotometrically by absorbance measurements at 260 nm and 280 nm using the NanoDrop system (NanoDrop Technologies, Wilmington, Del.). Quality of RNA was assessed by separation in gel-electrophoresis. To remove any traces of DNA contamination, RNA was then treated with Dnase I (Invitrogen) following the manufacturer guidelines. Complementary DNAs (cDNAs) were synthesized using 3.0 μg of RNA for each sample using Applied Biosystems High Capacity cDNA Reverse Transcription Kit following the manufacturer's protocol.
# Quantitative RT-PCR (qPCR) amplifications were carried out in triplicate on an ABI 7300 Real-Time Detection System in a total volume of 25 μl containing 12.5 μl Brilliant SYBR® Green PCR master mix (Applied Biosystems), 5 μl of the 1:25 diluted cDNA, 0.5 μl of 6 μM gene-specific primers (IDT, Coralville, Iowa) and […] PCR-grade water. Primers were synthesized by Integrated DNA Technologies, Inc. (Coralville, Iowa, USA) as follows: β-actin, forward primer 5′-ACGTTGCTATCCAGGCTGTGCTAT-3′ (SEQ ID NO: 1), reverse primer 5′-CTCGGTGAGGATCTTCATGAGGTAGT-3′ (SEQ ID NO: 2); elastin, forward primer 5′-AAGCAGCAGCAAAGTTCGGT-3′ (SEQ ID NO: 3), and reverse primer 5′-ACTAAGCCTGCAGCAGCTCCATA-3′ (SEQ ID NO: 4). qPCR amplifications were performed on the 7300 Real Time PCR System (A&B Applied Biosystems) using 1 cycle at 50° C. for 2 min, 1 cycle at 95° C. for 10 min, followed by 40 cycles of 15 s at 95° C. and 1 min at 60° C. The dissociation curve was completed with one cycle of 15 s at 95° C., 1 min at 60° C., and 15 s of 95° C. No RT (NRT) and no template control (NTC) were included in each experiment as quality control steps. Target mRNA expression was analyzed using the ΔΔCt method and normalized with respect to the expression of the β-actin housekeeping gene. Cells treated with DMEM only (negative control) served as the calibrator sample in this study, and a value of 1.0 was assigned to the target gene expression of the calibrator sample. All samples were run in triplicate. A p value of 0.001 was considered to be significant.
# [4] = pooled gastrocnemius RNA, PCR array
structure (smiles),measurement,setting,value
"CC[C@@H](C(C)C)[C@H](O)[C@@H](O)[C@@H](C)[C@H]1CC[C@H]2[C@@H]3COC(=O)[C@H]4C[C@H](O)[C@H](O)C[C@]4(C)[C@H]3CC[C@]12C [Compound 1, (22S,23S,24S)-2α,3α,22,23-tetrahydroxy-24 ethyl-β-homo-7-oxo-5α-cholestane-6-one]",binding to androgen receptor,[1],no significant binding
same,expression of EIF2B1,[2],No changes
same,MYF5 mRNA upregulation,[2]; RT-PCR (FIG. 11C),1.3 fold
same,MYF6 mRNA upregulation,[2]; RT-PCR (FIG. 11C),1.3 fold
same,MYOD1 mRNA upregulation,[2]; RT-PCR (FIG. 11C),2.1 fold
same,MYOG (myogenin) mRNA upregulation,[2]; RT-PCR (FIG. 11C),1.7 fold
same,ADRA1D mRNA upregulation,[2]; [4],6.5 fold
same,FBP2 mRNA upregulation,[2]; [4],4.5 fold
same,IGF-2 mRNA upregulation,[2]; [4],1.4 fold
same,IGFBP1 mRNA upregulation,[2]; [4],2.5 fold
same,SREBP-1 mRNA upregulation,[2]; [4],2.5 fold
"CC[C@@H](C(C)C)[C@H](O)[C@@H](O)[C@@H](C)[C@H]1CC[C@H]2[C@@H]3CC(=O)[C@H]4C[C@H](O)[C@H](O)C[C@]4(C)[C@H]3CC[C@]12C [Compound 2, (22S,23S,24S)-2α,3α, 22,23-tetrahydroxy-24-ethyl-5α-cholestan-6-one]",Increase in elastin mRNA levels (-fold over control),[3]; 5 μM,1.7 fold
same,Increase in elastin mRNA levels (-fold over control),"[3]; 10 μM, listed as Homocastasterone",3.2** fold
same,Increase in elastin mRNA levels (-fold over control),"[3]; 10 μM, listed as homocastasterone",up to 3.23±0.4 fold

# From patent publication US20140128357A1, “METHODS OF PRODUCING AND USING BRASSINOSTEROIDS TO PROMOTE GROWTH, REPAIR AND MAINTENANCE OF SKELETAL MUSCLE AND SKIN” (Rutgers University, priority 2010, published 2014)
